Test results: patent publication US6372297B1, “Wood preservative oxathiazines” (Uniroyal Chemical Company, Inc., priority 1993, dated 2002)
Where two headings read alike, the source gives them in different places.

Experiments:
Pseudomonas alcaligenes = experiment: Wood preservative efficacy against bacteria and yeasts, tryptose agar plates; format: cell-based; design: key: 0 = growth equal to control, 1 = inhibition, 2 = no growth; settings: 100 ppm in tryptose agar
Method: (§1) Compositions were prepared by dissolving the compounds shown in Table 1 in 50% ethanol and further diluting with sterile distilled water. […] After cooling, the medium was inoculated with the bacteria listed below. After sufficient growth of the untreated cultures, the compounds were evaluated using the following rating system: 0=growth equal to control 1=inhibition of growth by the compound 2=no growth under the influence of the compound. In this Table, the higher numbers are the most preferred species. Pseudomonas alcaligenes (gram neg)

Bacillus cereus mycoides = format: cell-based; design: scale not given here
Pseudomonas aeruginosa = experiment: Wood preservative efficacy against bacteria and yeasts, tryptose agar plates; format: cell-based; design: key: 0 = growth equal to control, 1 = growth inhibited, 2 = no growth; settings: 100 ppm in tryptose agar
Method: as §1, with “aeruginosa” for “alcaligenes”

Debaryomyces hansenii = experiment: as above; format: cell-based; design: key: 0 = growth equal to control, 1 = inhibition, 2 = no growth
Method: as §1, with “Debaryomyces hansenii (yeast)” for “Pseudomonas alcaligenes (gram neg)”

Flavobacterium sp. = experiment: as above; format: cell-based; design: key: 0 = growth equal to control, 1 = growth inhibited, 2 = no growth
Method: as §1, with “Flavobacterium sp.” for “Pseudomonas alcaligenes”

Streptomyces albus = experiment: as above; format: cell-based; design: key: 0 = growth equal to control, 1 = inhibition, 2 = no growth
Method: as §1, with “Streptomyces albus” for “Pseudomonas alcaligenes”, “pos)” for “neg)”

Enterobacter aerogenes = experiment: as above; format: cell-based; design: key: 0 = growth equal to control, 1 = inhibition, 2 = no growth
Method: as §1, with “Enterobacter aerogenes” for “Pseudomonas alcaligenes”

Escherichia coli = experiment: as above; format: cell-based; design: key: 0 = growth equal to control, 1 = growth inhibited, 2 = no growth
Method: as §1, with “Escherichia coli” for “Pseudomonas alcaligenes”, “[…])” for “neg)”

Coriolus versicolor = experiment: Wood preservative efficacy against fungi, agar plate colony diameter; format: cell-based; settings: 10 ppm, Table 6B
Method: (§2) Each plate was inoculated with a spore suspension or with a small piece of agar (1 mm) from the margin of an actively growing colony of the test fungus. The fungi employed are listed below. After incubation at 22° C. and 70% relative humidity during a period long enough to allow significant growth of untreated controls, the diameters of the fungus colonies were measured and scored using the following rating system: 0=free of fungal growth 1=25% of fungal growth compared to untreated 2=50% of fungal growth compared to untreated 3=75% of fungal growth compared to untreated 4=Growth equal to that of untreated The scores measured for wood preservation efficacy of the compounds of this invention are listed in Tables 6a and 6b. In these Tables, the lower numbers are the most preferred species. Coriolus versicolor

Coniophora puteana = experiment: as above; format: cell-based; design: key: 0 = no fungal growth, 1-3 = 25/50/75% of untreated, 4 = equal; settings: 10 ppm, Table 6B
Method: as §2, with “Coniophora puteana (syn. C. cerebella)” for “Coriolus versicolor”

Chaetomium globosum = experiment: as above; format: cell-based; settings: 10 ppm, Table 6B
Method: as §2, with “Chaetomium globosum” for “Coriolus versicolor”

Mucor sp. = experiment: as above; format: cell-based; settings: 100 ppm, Table 6B
Method: as §2, with “Mucor sp.” for “Coriolus versicolor”

Aspergillus flavus = experiment: as above; format: cell-based; settings: 10 ppm, Table 6B
Method: as §2, with “Aspergillus flavus” for “Coriolus versicolor”

[1] = system: blue-stain fungi and molds; experiment: Activity against blue-stain fungi and molds in a stick test (threshold concentrations); settings: beech sticks, 22° C., 90% relative humidity
Method: Representative compounds of this invention were dissolved in 50% ethanol. Each compound was then diluted serially using 50% ethanol. […] After three (3) hours, the solutions containing the test compounds were poured off and the treated sticks were allowed to dry in a sterile laminar air flow. Each treated stick was then placed in a Petri dish which had been previously seeded with inoculum. Two drops of a test fungal or spore suspension were pipetted onto the upper surface of each treated stick. The Petri dishes containing the treated sticks were incubated at 22° C. and 90% relative humidity. The treated sticks were evaluated after there was sufficient growth of fungus on control sticks (i.e., untreated sticks) incubated in the same manner. The following score system was used: 0: Stick free of fungal/mold growth 1: Traces of fungal growth on the stick 2: Slight growth (5 to 25% of the surface covered with fungal growth) 3: Moderate growth (25 to 50% covered with fungal growth) 4. Vigorous to maximum fungal growth (more than 50% growth) […]

| SMILES | Score of bactericidal activity, P. alcalgenes (Pseudomonas alcaligenes) | Score of bactericidal activity, B. cereus mycoides (Bacillus cereus mycoides; 10 ppm in tryptose agar) | Score of bactericidal activity, B. cereus mycoides (Bacillus cereus mycoides; 100 ppm in tryptose agar) | Score of bactericidal activity, P. aeruginosa (Pseudomonas aeruginosa) | Score of bactericidal activity, D. hansenii (Debaryomyces hansenii; 10 ppm in tryptose agar) | Score of bactericidal activity, D. hansenii (Debaryomyces hansenii; 100 ppm in tryptose agar) | Score of bactericidal activity, Flavobacter (Flavobacterium sp.; 100 ppm in tryptose agar) | Score of bactericidal activity, S. albus (Streptomyces albus; 100 ppm in tryptose agar) | Score of bactericidal activity, E. aerogenes (Enterobacter aerogenes; 100 ppm in tryptose agar) | Score of bactericidal activity, E. Coli (Escherichia coli; 100 ppm in tryptose agar) | melting point | other results |
| --- | --- | --- | --- | --- | --- | --- | --- | --- | --- | --- | --- | --- |
| C[S+]1CCON=C1c1ccc(Cl)cc1Cl (stereo not shown) [Compound 2] | 0 | 0 | 2 | 0 | 2 | 2 | 2 | 0 | 0 | 0 | – | – |
| C[S+]1CCON=C1c1cccc(C(F)(F)F)c1 (stereo not shown) [Compound 13] | 0 | 2 | 2 | 0 | 2 | 2 | 2 | 2 | 0 | 2 | – | – |
| C[S+]1CCON=C1c1c(Cl)cccc1Cl (stereo not shown) [Compound 15] | 0 | 0 | 1 | 0 | 0 | 1 | 0 | 0 | 0 | 0 | – | – |
| C[S+]1CCON=C1c1ccccc1 (stereo not shown) [Compound 17] | 0 | 0 | 0 | 0 | – | – | 0 | 0 | 0 | 0 | – | Score of bactericidal activity, Flavobacter (Flavobacterium sp.; 10 ppm in tryptose agar): 0; Score of bactericidal activity, S. albus (Streptomyces albus; 10 ppm in tryptose agar): 0; Score of bactericidal activity, E. aerogenes (Enterobacter aerogenes; 10 ppm in tryptose agar): 0; Score of bactericidal activity, E. Coli (Escherichia coli; 10 ppm in tryptose agar): 0; Score of fungicidal activity, G. VERSICLOR (Coriolus versicolor): 4; Score of fungicidal activity, C. PUTEANA (Coniophora puteana): 4; Score of fungicidal activity, C. GLOBOSUM (Chaetomium globosum): 4; Score of fungicidal activity, MUCOR SP (Mucor sp.): 4; Score of fungicidal activity, A. FLAVUS (Aspergillus flavus): 4 |
| CC1C[S+]([O-])C(c2cccs2)=NO1 (stereo not shown) [Compound 50, 5,6-dihydro-6-methyl-3-(2-thienyl)-1,4,2-oxathiazine-4-oxide] | – | – | – | – | – | – | – | – | – | – | 114 to 115 °C | Threshold concentration (ppm), A. niger, score 0 ([1]; A. niger, minimum concentration to obtain score 0): 1000 ppm; Threshold concentration (ppm), A. niger, score 1-2 ([1]; A. niger, minimum concentration to obtain score 1-2): 250-500 ppm; Threshold concentration (ppm), Aureobasidium, score 0 ([1]; Aureobasidium, minimum concentration to obtain score 0): >1000 ppm; Threshold concentration (ppm), Aureobasidium, score 1-2 ([1]; Aureobasidium, minimum concentration to obtain score 1-2): 100-500 ppm; Threshold concentration (ppm), Sclerophoma, score 0 ([1]; Sclerophoma, minimum concentration to obtain score 0): 100 ppm; Threshold concentration (ppm), Sclerophoma, score 1-2 ([1]; Sclerophoma, minimum concentration to obtain score 1-2): 50-100 ppm; Threshold concentration (ppm), Trichoderma, score 0 ([1]; Trichoderma, minimum concentration to obtain score 0): 5000 ppm; Threshold concentration (ppm), Trichoderma, score 1-2 ([1]; Trichoderma, minimum concentration to obtain score 1-2): 1000-2500 ppm |
| CC1CSC(c2cccs2)=NO1 (stereo not shown) [Compound 52, 5,6-dihydro-6-methyl-3-(2-thienyl)-1,4,2-oxathiazine] | – | – | – | – | – | – | – | – | – | – | 70 to 72 °C | – |
| Clc1ccc(C2=NOCCS2)s1 [Compound 59, 3-(5-chloro-2-thienyl)-5,6-dihydro-1,4,2-oxathiazine] | – | – | – | – | – | – | – | – | – | – | 74 to 77 °C | – |
